Like-named read-outs stand apart in the source and are kept apart here.
Experiments:
Type in all cases: in vivo
[1] = system: Pyricularia oryzae; details: spray application of wettable powder diluted to 500 ppm; rice Koshihikari 2-leaf stage; spray-inoculated with Pyricularia oryzae spores; examined after 7 days
[2] = system: Pyricularia oryzae; details: granules applied to water surface at 3 kg/10 ares; rice Koshihikari; inoculated 30 days after application; lesions checked after 1 week
[3] = system: Pyricularia oryzae; details: nursery box treated with granules 50 g per box; rice Koshihikari; inoculated 30 days after transplantation; lesions counted after 1 week

Compound	Grade of Effect (preventive value, rice blast controlling effect) [1]	Grade of Effect (preventive value, rice blast controlling effect) [2]	Grade of Effect (preventive value, rice blast controlling effect) [3]
CC(C)OC(=O)NC(CNC(=O)c1ccc2ccccc2c1)C(C)C (stereo not drawn) [compound 242]	A (100%)	A (From 80% to 100%)	A (From 80% to 100%)
Cc1ccc(C(=O)NCC(NC(=O)OC(C)C)C(C)C)cc1 (stereo not drawn) [compound 240]	A (100%)	A (From 80% to 100%)	A (From 80% to 100%)
C=C(C)COC(=O)NC(CNC(=O)c1ccc(C)cc1)C(C)C (stereo not drawn) [compound 1216]	A (100%)	A (From 80% to 100%)	A (From 80% to 100%)
Cc1ccc(C(=O)NCC(C)NC(=O)OC(C)C)cc1 (stereo not drawn) [compound 215]	A (100%)	A (From 80% to 100%)	A (From 80% to 100%)
Cc1ccccc1C(=O)NCC(NC(=O)OC(C)C)C(C)C (stereo not drawn) [compound 239]	A (100%)	A (From 80% to 100%)	A (From 80% to 100%)
CC(C)OC(=O)NC(CNC(=O)c1ccccc1)C(C)C (stereo not drawn) [compound 236]	A (100%)	A (From 80% to 100%)	A (From 80% to 100%)
Cc1ccc(C(=O)NCC(NC(=O)Oc2ccccc2)C(C)C)cc1 (stereo not drawn) [compound 530]	A (100%)	A (From 80% to 100%)	A (From 80% to 100%)
Cc1ccc(C(=O)NCC(NC(=O)OCC(C)C)C(C)C)cc1 (stereo not drawn) [compound 387]	A (100%)	A (From 80% to 100%)	A (From 80% to 100%)
Cc1ccc(C(=O)NCC(NC(=O)OC(C)(C)C)C(C)C)cc1 (stereo not drawn) [compound 464]	B (80% or more and less than 100%)	B (50% or more and less than 80%)	B (50% or more and less than 80%)
Cc1ccc(C(=O)NCC(NC(=O)OCCS(C)(=O)=O)C(C)C)cc1 (stereo not drawn) [compound 1276]	A (100%)	A (From 80% to 100%)	A (From 80% to 100%)
C#CCOC(=O)NC(CNC(=O)c1ccc(Cl)cc1)C(C)C (stereo not drawn) [compound 804]	A (100%)	A (From 80% to 100%)	A (From 80% to 100%)
CC(C)C(CNC(=O)c1ccc(Cl)cc1)NC(=O)OCC1CC1 (stereo not drawn) [compound 1183]	A (100%)	A (From 80% to 100%)	A (From 80% to 100%)
C=CCOC(=O)NC(CNC(=O)c1ccc(Cl)cc1)C(C)C (stereo not drawn) [compound 739]	A (100%)	A (From 80% to 100%)	A (From 80% to 100%)
Cc1ccc(C(=O)NCC(NC(=O)OCc2ccccc2)C(C)C)cc1 (stereo not drawn) [compound 600]	A (100%)	A (From 80% to 100%)	A (From 80% to 100%)
Cc1ccc(C(=O)NCC(NC(=O)OCC2CC2)C(C)C)cc1 (stereo not drawn) [compound 1186]	A (100%)	A (From 80% to 100%)	A (From 80% to 100%)
CSCCOC(=O)NC(CNC(=O)c1ccc(C)cc1)C(C)C (stereo not drawn) [compound 1261]	A (100%)	A (From 80% to 100%)	A (From 80% to 100%)
C#CCOC(=O)NC(CNC(=O)c1ccc(C)cc1)C(C)C (stereo not drawn) [compound 807]	A (100%)	A (From 80% to 100%)	A (From 80% to 100%)
CCC(CNC(=O)Oc1ccccc1)NC(=O)OC (stereo not drawn) [Formula (8), reference compound]	D (less than 50%)	C (less than 50%)	C (less than 50%)
CC(C)OC(=O)NC(CNC(=O)c1ccc(Cl)cc1)C(C)C (stereo not drawn) [compound 237]	A (100%)	A (From 80% to 100%)	A (From 80% to 100%)
CC(OC(=O)NC(CNC(=O)c1ccc(Cl)cc1)C(C)C)c1ccccc1 (stereo not drawn) [compound 1078]	A (100%)	A (From 80% to 100%)	A (From 80% to 100%)
Cc1ccc(C(=O)NCC(NC(=O)OC(C)(C)C)c2ccccc2)cc1 (stereo not drawn) [compound 504, N-(t-butoxycarbonyl)-N′-(4-methylbenzoyl)-1-phenyl-1,2-ethylenediamine]	B (80% or more and less than 100%)	B (50% or more and less than 80%)	B (50% or more and less than 80%)
CC(C)OC(=O)NC(CNC(=O)c1ccc(Cl)cc1)Cc1ccccc1 (stereo not drawn) [compound 290, N-(4-chlorobenzoyl)-N′-(i-propoxycarbonyl)-3-phenyl-1,2-propanediamine]	A (100%)	A (From 80% to 100%)	A (From 80% to 100%)
Cc1ccc(C(=O)NCC(NC(=O)OCc2ccco2)C(C)C)cc1 (stereo not drawn) [compound 1126]	A (100%)	A (From 80% to 100%)	A (From 80% to 100%)
CC(C)OC(=O)NC(CNC(=O)c1ccc(Cl)c(Cl)c1)C(C)C (stereo not drawn) [compound 238]	A (100%)	A (From 80% to 100%)	A (From 80% to 100%)
Cc1ccc(C(=O)NCC(C)(NC(=O)OC(C)C)C(C)C)cc1 (stereo not drawn) [compound 245]	A (100%)	A (From 80% to 100%)	A (From 80% to 100%)
CCc1ccc(C(=O)NCC(NC(=O)OC(C)C)C(C)C)cc1 (stereo not drawn) [compound 241]	A (100%)	A (From 80% to 100%)	A (From 80% to 100%)

Source: patent US7312245B2 (priority 2001, dated 2007)
